# Like-named read-outs stand apart in the source and are kept apart here.
# Tests used:
# Assay type in all cases: cell-based
# [1] = test system: PC-3 human prostate cancer cells; assay: Cytotoxicity for prostate cancer cell line PC-3 (MTT assay); settings: read-out: Percent cell kill; for cytotoxicity at 100 µg/mL: 100 μg/ml; for cytotoxicity at 150 µg/mL: 150 μg/ml; for cytotoxicity at 200 µg/mL: 200 μg/ml
# Description: (§1) In the following examples, tumor cells were treated with varying concentrations of compounds C1, C2, C4 or C5 dissolved in absolute ethanol. To limit any non-specific toxicity, the final concentration of ethanol was not allowed to exceed 0.5%. Stock concentrations of 5 mg/ml or 20 mg/ml were used. Viability of cells was determined in some studies by the trypan blue dye exclusion method. In other studies, cell viability/proliferation activity was determined by MTT assay by using a kit obtained from Promega, (Promega Corp., Madison, Wis. 53711). For this assay, a 100 μl cell suspension containing 5-10^3 monolayer cells or 1×10^5 suspension cells was placed in the wells of a 96-well microtiter plate. After overnight incubation, cells were treated with different concentrations of the test compound. Control wells received vehicle only. After 24, 48, 72 or 96 h of incubation, 50 μl of MTT dye solution was added. After 4 h of incubation at 37° C., 100 μl of solubilization/stop solution was added. After another h of incubation, cells were mixed using a multi-channel pipet and the absorption of the dye color was recorded at 570 nm using a plate reading absorption spectrophotometer.
# (§2) After the incubation period, viability of the cells was determined by MTT assay (Promega Corp., Madison, Wis. 53711).
# [2] = test system: DU-145 human prostate cancer cells; assay: Cytotoxicity for prostate cancer cell line DU-145 (MTT assay); settings: read-out: Percent cell kill; for cytotoxicity at 100 µg/mL: 100 μg/ml; for cytotoxicity at 150 µg/mL: 150 μg/ml; for cytotoxicity at 200 µg/mL: 200 μg/ml
# Description: as §1, §2
# [3] = test system: MCF-7 human breast cancer cells; assay: Cytotoxicity for breast cancer cell line MCF-7 (MTT assay); settings: read-out: Percent cell kill; for cytotoxicity at 100 µg/mL: 100 μg/ml; for cytotoxicity at 150 µg/mL: 150 μg/ml; for cytotoxicity at 200 µg/mL: 200 μg/ml
# Description: as §1, §2
# [4] = test system: BT-20 human breast cancer cells; assay: Cytotoxicity for breast cancer cell line BT-20 (MTT assay); settings: read-out: Percent cell kill; for cytotoxicity at 100 µg/mL: 100 μg/ml; for cytotoxicity at 150 µg/mL: 150 μg/ml; for cytotoxicity at 200 µg/mL: 200 μg/ml
# Description: as §1, §2
# [5] = test system: Daudi human lymphoma cells; assay: Cytotoxicity for lymphoma cells (Daudi); settings: Homo sapiens, Daudi; for cytotoxicity at 100 µg/mL: 100 μg/ml; for cytotoxicity at 150 µg/mL: 150 μg/ml, read-out: % Cytotoxicity; for cytotoxicity at 200 µg/mL: 200 μg/ml
# Description: as §1
# The viability of the cells was
# Compounds C4 and C5 were also tested for toxicity against human lymphoma Daudi cells.
# [6] = test system: L1210 mouse leukemia cells; assay: Cytotoxicity for leukemia cells (L1210); settings: for cytotoxicity at 100 µg/mL / cytotoxicity at 150 µg/mL / cytotoxicity at 200 µg/mL: Mus musculus; for cytotoxicity at 100 µg/mL: 100 μg/ml; for cytotoxicity at 150 µg/mL: 150 μg/ml
# Description: as §1
# The viability of the cells was […]
smiles,measurement,setting,value
"CCCCN1C(=O)C(=O)C(=O)N(CCCC)C1=S [Compound C2, 4,5,6(1H)-pyrimidinetrione, 1,3-dibutyldihydro-2-thioxo]",cytotoxicity at 100 µg/mL,"[1]; 24 h, 24 hr",32.7 ± 6.2%
same,cytotoxicity at 150 µg/mL,"[1]; 24 h, 24 hr",47 ± 6.7%
same,cytotoxicity at 200 µg/mL,"[1]; 24 h, 24 hr",57.5 ± 3.5%
same,cytotoxicity at 100 µg/mL,"[1]; 48 h, 48 hr",46.2 ± 4.1%
same,cytotoxicity at 150 µg/mL,"[1]; 48 h, 48 hr",70.7 ± 6%
same,cytotoxicity at 200 µg/mL,"[1]; 48 h, 48 hr",81.5 ± 3.1%
same,cytotoxicity at 100 µg/mL,"[1]; 72 h, 72 hr",51.5 ± 6.5%
same,cytotoxicity at 150 µg/mL,"[1]; 72 h, 72 hr",77.7 ± 4.6%
same,cytotoxicity at 200 µg/mL,"[1]; 72 h, 72 hr",88.5 ± 5.2%
same,cytotoxicity at 100 µg/mL,"[1]; 96 h, 96 hr",75 ± 1%
same,cytotoxicity at 150 µg/mL,"[1]; 96 h, 96 hr",88.7 ± 3.2%
same,cytotoxicity at 200 µg/mL,"[1]; 96 h, 96 hr",95 ± 3.6%
same,cytotoxicity at 100 µg/mL,"[2]; DU-145, 24 h, 24 hr",0%
same,cytotoxicity at 150 µg/mL,"[2]; DU-145, 24 h, 24 hr",0%
same,cytotoxicity at 200 µg/mL,"[2]; DU-145, 24 h, 24 hr",0%
same,cytotoxicity at 100 µg/mL,"[2]; DU-145, 48 h, 48 hr",0%
same,cytotoxicity at 150 µg/mL,"[2]; DU-145, 48 h, 48 hr",4.2 ± 3.9%
same,cytotoxicity at 200 µg/mL,"[2]; DU-145, 48 h, 48 hr",20 ± 3%
same,cytotoxicity at 100 µg/mL,"[2]; DU-145, 72 h, 72 hr",0%
same,cytotoxicity at 150 µg/mL,"[2]; DU-145, 72 h, 72 hr",9.2 ± 5.3%
same,cytotoxicity at 200 µg/mL,"[2]; DU-145, 72 h, 72 hr",36.7 ± 2.1%
same,cytotoxicity at 100 µg/mL,"[2]; DU-145, 96 h, 96 hr",10 ± 6.1%
same,cytotoxicity at 150 µg/mL,"[2]; DU-145, 96 h, 96 hr",25.2 ± 7.4%
same,cytotoxicity at 200 µg/mL,"[2]; DU-145, 96 h, 96 hr",43.7 ± 4.3%
same,cytotoxicity at 100 µg/mL,"[3]; MCF7, 24 h, 24 hr",9 ± 7%
same,cytotoxicity at 150 µg/mL,"[3]; MCF7, 24 h, 24 hr",26.3 ± 7.9%
same,cytotoxicity at 200 µg/mL,"[3]; MCF7, 24 h, 24 hr",40 ± 10.6%
same,cytotoxicity at 100 µg/mL,"[3]; MCF7, 48 h, 48 hr",16.3 ± 4.8%
same,cytotoxicity at 150 µg/mL,"[3]; MCF7, 48 h, 48 hr",43.3 ± 7.3%
same,cytotoxicity at 200 µg/mL,"[3]; MCF7, 48 h, 48 hr",70.3 ± 7.8%
same,cytotoxicity at 100 µg/mL,"[3]; MCF7, 72 h, 72 hr",33.3 ± 5.4%
same,cytotoxicity at 150 µg/mL,"[3]; MCF7, 72 h, 72 hr",61 ± 5.6%
same,cytotoxicity at 200 µg/mL,"[3]; MCF7, 72 h, 72 hr",81.3 ± 3.2%
same,cytotoxicity at 100 µg/mL,"[3]; MCF7, 96 h, 96 hr",87.7 ± 0.6%
same,cytotoxicity at 150 µg/mL,"[3]; MCF7, 96 h, 96 hr",97 ± 0.8%
same,cytotoxicity at 200 µg/mL,"[3]; MCF7, 96 h, 96 hr",94.3 ± 2.1%
same,cytotoxicity at 100 µg/mL,"[4]; BT-20, 24 h, 24 hr",29.8 ± 6.8%
same,cytotoxicity at 150 µg/mL,"[4]; BT-20, 24 h, 24 hr",30 ± 4.4%
same,cytotoxicity at 200 µg/mL,"[4]; BT-20, 24 h, 24 hr",30.3 ± 2.9%
same,cytotoxicity at 100 µg/mL,"[4]; BT-20, 48 h, 48 hr",51.8 ± 1.9%
same,cytotoxicity at 150 µg/mL,"[4]; BT-20, 48 h, 48 hr",50 ± 1.7%
same,cytotoxicity at 200 µg/mL,"[4]; BT-20, 48 h, 48 hr",55.5 ± 8.9%
same,cytotoxicity at 100 µg/mL,"[4]; BT-20, 72 h, 72 hr",57.5 ± 2.6%
same,cytotoxicity at 150 µg/mL,"[4]; BT-20, 72 h, 72 hr",60.8 ± 2.8%
same,cytotoxicity at 200 µg/mL,"[4]; BT-20, 72 h, 72 hr",68.5 ± 3.4%
same,cytotoxicity at 100 µg/mL,"[4]; BT-20, 96 h, 96 hr",99.9%
same,cytotoxicity at 150 µg/mL,"[4]; BT-20, 96 h, 96 hr",99.9%
same,cytotoxicity at 200 µg/mL,"[4]; BT-20, 96 h, 96 hr",99.9%
same,cytotoxicity at 100 µg/mL,[5]; 24 h,57.5 ± 3%
same,cytotoxicity at 150 µg/mL,"[5]; 24 h, 24 hr",81.3 ± 4%
same,cytotoxicity at 200 µg/mL,[5]; 24 h,93.2 ± 3.3%
same,cytotoxicity at 100 µg/mL,[5]; 48 h,41.5%
same,cytotoxicity at 150 µg/mL,"[5]; 48 h, 48 hr",92%
same,cytotoxicity at 200 µg/mL,[5]; 48 h,88%
same,% Cytotoxicity,"[6]; 200 μg/ml, 24 hr, 1440 min",> 58%
same,cytotoxicity at 100 µg/mL,"[6]; L1210, 24 h, 24 hr",33.2 ± 2%
same,cytotoxicity at 150 µg/mL,"[6]; L1210, 24 h, 24 hr",50 ± 4.1%
same,cytotoxicity at 200 µg/mL,"[6]; L1210, 24 h, 200 μg/ml, 24 hr",58.7 ± 2.6%
same,cytotoxicity at 100 µg/mL,"[6]; L1210, 48 h, 48 hr",29 ± 3.5%
same,cytotoxicity at 150 µg/mL,"[6]; L1210, 48 h, 48 hr",53.7 ± 2.5%
same,cytotoxicity at 200 µg/mL,"[6]; L1210, 48 h, 200 μg/ml, 48 hr",72.5 ± 2.4%

# Source: patent publication US5869494A, “Uses for barbituric acid analogs” (priority 1997, dated 1999)
